For four molecules, MIC results are on record in ChEMBL document CHEMBL4725375, “Total synthesis and a systematic structure-activity relationship study of WAP-8294A2” (2020).

SMILES strings stand for the structures. ≈ marks a conversion by molar mass, not a printed value.

Test [1] deals with Staphylococcus aureus. Briefly: Antibacterial activity against Staphylococcus aureus ATCC 29213 by CLSI M07-A8 protocol based microdilution method. Format: functional. On the technique in general: Dilution methods test growth across graded concentrations, often in twofold steps.
For test [2], the system named is Staphylococcus aureus. Description: Antibacterial activity against methicillin-resistant Staphylococcus aureus SA86 by CLSI M07-A8 protocol based microdilution method. Format: functional.

In general, MIC refers to the lowest concentration that inhibits growth of the organism. A low value points to greater potency. Take `CC(C)CCC[C@@H]1CC(=O)N[C@@H](CO)C(=O)N[C@H](CC(N)=O)C(=O)N[C@@H](CO)C(=O)NCC(=O)N(C)[C@H](Cc2ccccc2)C(=O)N[C@@H](CC(C)C)C(=O)N[C@H](CCCN)C(=O)N[C@@H](CCC(=O)O)C(=O)N[C@H](CC(N)=O)C(=O)N[C@H](Cc2c[nH]c3ccccc23)C(=O)N[C@H](Cc2c[nH]cn2)C(=O)N(C)[C@@H](C(C)C)C(=O)O1`: the MIC in test [1] and in test [2] was 2 µg/mL (≈ 1.27 µM) throughout.
As to `CC(C)CCC[C@@H]1CC(=O)N[C@@H](CO)C(=O)N[C@H](CC(N)=O)C(=O)N[C@@H](CO)C(=O)NCC(=O)N(C)[C@H](Cc2ccccc2)C(=O)N[C@@H](CC(C)C)C(=O)N[C@H](CCCN)C(=O)N[C@@H](CCC(=O)O)C(=O)N[C@H](CC(N)=O)C(=O)N[C@H](Cc2ccc(O)cc2)C(=O)N[C@H](CCCN)C(=O)N(C)[C@@H](C(C)C)C(=O)O1`, the MIC in test [1] and in test [2] was at least 32 µg/mL each time.
Turning to `CC(C)CCC[C@@H]1CC(=O)N[C@@H](CO)C(=O)N[C@H](CC(N)=O)C(=O)N[C@@H](CO)C(=O)NCC(=O)N(C)[C@H](Cc2ccccc2)C(=O)N[C@@H](CC(C)C)C(=O)N[C@H](CCCN)C(=O)N[C@@H](CCC(=O)O)C(=O)N[C@H](CC(N)=O)C(=O)N[C@H](Cc2c[nH]c3ccccc23)C(=O)N[C@H](CCCNC(=N)N)C(=O)N(C)[C@@H](C(C)C)C(=O)O1`, the MIC is 1 µg/mL (≈ 0.629 µM) in test [1] and 2 µg/mL (≈ 1.26 µM) in test [2].
The matching figures for `CC(C)CCC[C@@H]1CC(=O)N[C@@H](CO)C(=O)N[C@H](CC(N)=O)C(=O)N[C@@H](CO)C(=O)NCC(=O)N(C)[C@H](Cc2ccccc2)C(=O)N[C@@H](CC(C)C)C(=O)N[C@H](CCCN)C(=O)N[C@@H](CCC(=O)O)C(=O)N[C@H](CC(N)=O)C(=O)N[C@H](Cc2ccccc2)C(=O)N[C@H](CCCN)C(=O)N(C)[C@@H](C(C)C)C(=O)O1`: at least 32 µg/mL and at least 32 µg/mL.
